Assay results from US20250339569A1, “CARBONIC ANHYDRASE IX LIGANDS” (priority 2021, published 2025).
Starred links: 1 amine or outer side, 2 acyl side, 3 side chain; linkers in the order of their positions; H or OH if unused. Positions of bridges follow the written chain, without caps; N, C: chain ends. Non-standard residues stand in square brackets, D forms with d. Residues, ends and D or L forms follow the SMILES beside them. *: point of attachment. NH(CH2)3NH(O2Oc(DOTA)) = O=C(O)CN1CCN(CC(=O)O)CCN(CC(=O)NCCOCCOCC(=O)NCCCN*)CCN(CC(=O)O)CC1; NH(1-deoxy-D-glucityl) = OC[C@@H](O)[C@@H](O)[C@H](O)[C@@H](O)CN*; DOTA = O=C(O)CN1CCN(CC(=O)O)CCN(CC(=O)*)CCN(CC(=O)O)CC1; Trp(5-Cl) = N[C@@H](Cc1c[nH]c2ccc(Cl)cc12)C(=O)O; Cyclopropanecarbonyl(1-CN) = N#CC1(C(=O)*)CC1; Phe(4-NH2) = Nc1ccc(C[C@H](N)C(=O)O)cc1; mXylylene = c1cc(C[*:1])cc(C[*:2])c1; X49 = N#Cc1ccc(N2CCCN(*)CC2)c(F)c1; Orn(Me2) = CN(C)CCC[C@H](N)C(=O)O; X2 = O=C(CN1CCC(N[*:1])CC1)[*:2]; Tic = O=C(O)[C@@H]1Cc2ccccc2CN1; X53 = Cc1cc2cc(CN*)ccc2[nH]c1=O; Propanoyl(3-OH) = O=C(CCO)*; Isovaleryl = CC(C)CC(=O)*; Propionyl = CCC(=O)*; Bz = O=C(c1ccccc1)*; βAla = NCCC(=O)O; Sar = CNCC(=O)O

Target: T1, CAIX-expressing human HT-29 colorectal cancer cells (Homo sapiens, UniProt Q16790)
T1 construct: CAIX-expressing human HT-29 colorectal cancer cells; host or cells: HT-29 human colorectal cancer cells
Test: FACS binding assay (IC50 determination, competition with tracer 3BP-2776 or 3BP-4149)
Conditions: not given
Procedure, shortened: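 HT-29 cells in FACS buffer (PBS, 1% FCS) at 500.000 cells/ml were exposed to compounds competing with a labelled tracer, with biotinylated compounds detected by 1 μg/mL APC-streptavidin for 30 min on ice. APC/Cy5 median fluorescence was read by flow cytometry and IC50 derived by 4PL fit.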

Row | SMILES | IC50
1 | CC(C)C[C@@H]1NC(=O)[C@H](Cc2ccc(NC(=O)c3ccccc3)cc2)NC(=O)[C@H](CC(=O)O)NC(=O)[C@H]2CCCN2C(=O)[C@H](CCC(=O)O)NC(=O)[C@@H](NC(=O)[C@H](Cc2ccc(O)cc2)NC(=O)[C@@H](NC(=O)CN2CCC(NC(=O)CN3CCN(CC(=O)O)CCN(CC(=O)O)CCN(CC(=O)O)CC3)CC2)C(C)C)CSCc2cccc(c2)CSC[C@@H](C(N)=O)NC(=O)[C@H](CO)NC(=O)[C@H](Cc2c[nH]c3ccccc23)NC(=O)[C@H]([C@@H](C)O)NC1=O [3BP-4171] ({DOTA}-[X2]VYCE[dP]D[Phe(4-NH2)](Bz)LTWSC-NH2; linker 4-13 via mXylylene) | 100 to 794 nM

Same assay, conditions: FACS binding assay, HT-29 cells, competition with tracer 3BP-2776 (10 nM, biotin-labeled), 4° C., 1 hour; read-out: pIC50 category (activity) (converted)

Row | IC50 | SMILES
2 | 10 to 79.4 nM | CC(C)C[C@@H]1NC(=O)[C@H](Cc2c[nH]c3ccccc23)NC(=O)[C@H](CCC(=O)NC[C@H](O)[C@@H](O)[C@H](O)[C@H](O)CO)NC(=O)[C@H]2CCCN2C(=O)[C@H](CCC(=O)O)NC(=O)[C@@H](NC(=O)[C@H](Cc2ccc(O)cc2)NC(=O)[C@@H](NC(=O)CN2CCC(NC(=O)CN3CCN(CC(=O)O)CCN(CC(=O)O)CCN(CC(=O)O)CC3)CC2)C(C)C)CSCc2cccc(c2)CSC[C@@H](C(N)=O)NC(=O)[C@H](CO)NC(=O)[C@H](Cc2c[nH]c3ccccc23)NC(=O)[C@H]([C@@H](C)O)NC1=O [3BP-4120, DOTA-APAc-Val-Tyr-[Cys(3MeBn)-Glu-pro-Glu(AGLU)-Trp-Leu-Thr-Trp-Ser-Cys]-NH2] ({DOTA}-[X2]VYCE[dP]E(NH(1-deoxy-D-glucityl))WLTWSC-NH2; linker 4-13 via mXylylene)
3 | < 10 nM | CC(C)C[C@@H]1NC(=O)[C@H](Cc2c[nH]c3ccccc23)NC(=O)[C@H](CC(=O)O)NC(=O)[C@H]2CCCN2C(=O)[C@H](CCC(=O)O)NC(=O)[C@@H](NC(=O)[C@H](Cc2ccc(O)cc2)NC(=O)[C@@H](NC(=O)CN2CCC(NC(=O)CN3CCN(CC(=O)O)CCN(CC(=O)O)CCN(CC(=O)O)CC3)CC2)C(C)C)CSCc2cccc(c2)CSC[C@@H](C(N)=O)NC(=O)[C@H](CO)NC(=O)[C@H](Cc2c[nH]c3ccccc23)NC(=O)[C@H](CCCN(C)C)NC1=O [3BP-4099] ({DOTA}-[X2]VYCE[dP]DWL[Orn(Me2)]WSC-NH2; linker 4-13 via mXylylene)

Same assay, conditions: FACS binding assay, HT-29 cells, competition with tracer 3BP-4149 (3 nM, Cy5-labeled), 4° C., 1 hour; read-out: pIC50 category (activity) (converted)

Row | IC50 | SMILES
4 | 10 to 79.4 nM | Cc1cc2cc(CNC(=O)CC[C@@H]3NC(=O)[C@H]4CCCN4C(=O)[C@H](CCC(=O)O)NC(=O)[C@@H](NC(=O)[C@H](Cc4ccc(O)cc4)NC(=O)[C@@H](NC(=O)CN4CCC(NC(=O)CN5CCN(CC(=O)O)CCN(CC(=O)O)CCN(CC(=O)O)CC5)CC4)C(C)C)CSCc4cccc(c4)CSC[C@@H](C(N)=O)NC(=O)[C@H](CO)NC(=O)[C@H](Cc4c[nH]c5ccccc45)NC(=O)[C@H]([C@@H](C)O)NC(=O)[C@H](CC(C)C)NC(=O)[C@H](Cc4c[nH]c5ccccc45)NC3=O)ccc2[nH]c1=O [3BP-4390] ({DOTA}-[X2]VYCE[dP]E(X53)WLTWSC-NH2; linker 4-13 via mXylylene)
5 | 100 to 794 nM | CC(C)CC(=O)Nc1ccc(C[C@@H]2NC(=O)[C@H](CC(=O)O)NC(=O)[C@H]3CCCN3C(=O)[C@H](CCC(=O)O)NC(=O)[C@@H](NC(=O)[C@H](Cc3ccc(O)cc3)NC(=O)[C@@H](NC(=O)CN3CCC(NC(=O)CN4CCN(CC(=O)O)CCN(CC(=O)O)CCN(CC(=O)O)CC4)CC3)C(C)C)CSCc3cccc(c3)CSC[C@@H](C(N)=O)NC(=O)[C@H](CO)NC(=O)[C@H](Cc3c[nH]c4ccccc34)NC(=O)[C@H]([C@@H](C)O)NC(=O)[C@H](CC(C)C)NC2=O)cc1 [3BP-4348] ({DOTA}-[X2]VYCE[dP]D[Phe(4-NH2)](Isovaleryl)LTWSC-NH2; linker 4-13 via mXylylene)

The remaining lines, values behind:

Row | SMILES | IC50
6 | CC(C)C[C@@H]1NC(=O)[C@H](Cc2ccc(NC(=O)C3(C#N)CC3)cc2)NC(=O)[C@H](CC(=O)O)NC(=O)[C@H]2CCCN2C(=O)[C@H](CCC(=O)O)NC(=O)[C@@H](NC(=O)[C@H](Cc2ccc(O)cc2)NC(=O)[C@@H](NC(=O)CN2CCC(NC(=O)CN3CCN(CC(=O)O)CCN(CC(=O)O)CCN(CC(=O)O)CC3)CC2)C(C)C)CSCc2cccc(c2)CSC[C@@H](C(N)=O)NC(=O)[C@H](CO)NC(=O)[C@H](Cc2c[nH]c3ccccc23)NC(=O)[C@H]([C@@H](C)O)NC1=O [3BP-4357] ({DOTA}-[X2]VYCE[dP]D[Phe(4-NH2)](Cyclopropanecarbonyl(1-CN))LTWSC-NH2; linker 4-13 via mXylylene) | 100 to 794 nM
7 | CC(C)C[C@@H]1NC(=O)[C@H](Cc2c[nH]c3ccccc23)NC(=O)[C@H](CCC(=O)N2CCCN(c3ccc(C#N)cc3F)CC2)NC(=O)[C@H]2CCCN2C(=O)[C@H](CCC(=O)O)NC(=O)[C@@H](NC(=O)[C@H](Cc2ccc(O)cc2)NC(=O)[C@@H](NC(=O)CN2CCC(NC(=O)CN3CCN(CC(=O)O)CCN(CC(=O)O)CCN(CC(=O)O)CC3)CC2)C(C)C)CSCc2cccc(c2)CSC[C@@H](C(N)=O)NC(=O)[C@H](CO)NC(=O)[C@H](Cc2c[nH]c3ccccc23)NC(=O)[C@H]([C@@H](C)O)NC1=O [3BP-4389] ({DOTA}-[X2]VYCE[dP]E(X49)WLTWSC-NH2; linker 4-13 via mXylylene) | 10 to 79.4 nM
8 | CCC(=O)Nc1ccc(C[C@@H]2NC(=O)[C@H](CC(=O)O)NC(=O)[C@H]3CCCN3C(=O)[C@H](CCC(=O)O)NC(=O)[C@@H](NC(=O)[C@H](Cc3ccc(O)cc3)NC(=O)[C@@H](NC(=O)CN3CCC(NC(=O)CN4CCN(CC(=O)O)CCN(CC(=O)O)CCN(CC(=O)O)CC4)CC3)C(C)C)CSCc3cccc(c3)CSC[C@@H](C(N)=O)NC(=O)[C@H](CO)NC(=O)[C@H](Cc3c[nH]c4ccccc34)NC(=O)[C@H]([C@@H](C)O)NC(=O)[C@H](CC(C)C)NC2=O)cc1 [3BP-4347] ({DOTA}-[X2]VYCE[dP]D[Phe(4-NH2)](Propionyl)LTWSC-NH2; linker 4-13 via mXylylene) | 100 to 794 nM

Same assay, conditions: FACS competition on HT-29 cells, Tracer ID 3BP-2776 (10 nM, biotin-labeled), 4° C., 1 hour; read-out: pIC50 category (activity) (converted)

Row | IC50 | SMILES
9 | < 10 nM | CC(C)C[C@@H]1NC(=O)[C@H](Cc2c[nH]c3ccccc23)NC(=O)[C@H](CO)NC(=O)[C@H]2CCCN2C(=O)[C@H](CCC(=O)O)NC(=O)[C@@H](NC(=O)[C@H](Cc2ccc(O)cc2)NC(=O)[C@@H](NC(=O)CN2CCC(NC(=O)CN3CCN(CC(=O)O)CCN(CC(=O)O)CCN(CC(=O)O)CC3)CC2)C(C)C)CSCc2cccc(c2)CSC[C@@H](C(N)=O)NC(=O)[C@H](CO)NC(=O)[C@H](Cc2c[nH]c3ccccc23)NC(=O)[C@H]([C@@H](C)O)NC1=O [3BP-3595] ({DOTA}-[X2]VYCE[dP]SWLTWSC-NH2; linker 4-13 via mXylylene)
10 | < 10 nM | CC(C)CC(=O)N[C@@H](CO)C(=O)N[C@H]1CSCc2cccc(c2)CSC[C@@H](C(N)=O)NC(=O)[C@H](CCC(=O)NCCCNC(=O)COCCOCCNC(=O)CN2CCN(CC(=O)O)CCN(CC(=O)O)CCN(CC(=O)O)CC2)NC(=O)[C@H](Cc2c[nH]c3ccccc23)NC(=O)[C@H]([C@@H](C)O)NC(=O)[C@H](CC(C)C)NC(=O)[C@H](Cc2c[nH]c3ccccc23)NC(=O)[C@H](CC(=O)O)NC(=O)[C@H]2CCCN2C(=O)[C@H](CCC(=O)O)NC1=O [3BP-3743] (Isovaleryl-SCE[dP]DWLTWE(NH(CH2)3NH(O2Oc(DOTA)))C-NH2; linker 2-11 via mXylylene)

The next lines start with the compound.

Row | SMILES | IC50
11 | CC(=O)N[C@H](C(=O)N[C@@H](Cc1ccc(O)cc1)C(=O)N[C@H]1CSCc2cccc(c2)CSC[C@@H](C(N)=O)NC(=O)[C@H](CCC(N)=O)NC(=O)[C@H](Cc2c[nH]c3ccc(Cl)cc23)NC(=O)[C@H]([C@@H](C)O)NC(=O)[C@H](CC(C)C)NC(=O)[C@H](Cc2c[nH]c3ccccc23)NC(=O)[C@H](CC(=O)O)NC(=O)CN(C)C(=O)[C@H](CCC(=O)O)NC1=O)C(C)C [3BP-3312] (Ac-VYCE[Sar]DWLT[Trp(5-Cl)]QC-NH2; linker 3-12 via mXylylene) | 100 to 794 nM
12 | CC(=O)N[C@H](C(=O)N1Cc2ccccc2C[C@H]1C(=O)N[C@H]1CSCc2cccc(c2)CSC[C@@H](C(N)=O)NC(=O)[C@H](CO)NC(=O)[C@H](Cc2c[nH]c3ccccc23)NC(=O)[C@H]([C@@H](C)O)NC(=O)[C@H](CC(C)C)NC(=O)[C@H](Cc2c[nH]c3ccccc23)NC(=O)[C@H](CC(=O)O)NC(=O)[C@H]2CCCN2C(=O)[C@H](CCC(=O)O)NC1=O)C(C)C [3BP-3572] (Ac-V[Tic]CE[dP]DWLTWSC-NH2; linker 3-12 via mXylylene) | 10 to 79.4 nM
13 | CC(C)C[C@@H]1NC(=O)[C@H](Cc2c[nH]c3ccccc23)NC(=O)[C@H](CC(=O)O)NC(=O)[C@H]2CCCN2C(=O)[C@H](CCC(=O)O)NC(=O)[C@@H](NC(=O)[C@H](Cc2ccc(O)cc2)NC(=O)CCO)CSCc2cccc(c2)CSC[C@@H](C(N)=O)NC(=O)[C@H](CO)NC(=O)[C@H](Cc2c[nH]c3ccccc23)NC(=O)[C@H]([C@@H](C)O)NC1=O [3BP-3730] ({Propanoyl(3-OH)}-YCE[dP]DWLTWSC-NH2; linker 2-11 via mXylylene) | < 10 nM
14 | CC(=O)N[C@H]1CSCc2cccc(c2)CSC[C@@H](C(N)=O)NC(=O)[C@H](CCC(N)=O)NC(=O)[C@H](Cc2c[nH]c3ccccc23)NC(=O)[C@H]([C@@H](C)O)NC(=O)[C@H](CC(C)C)NC(=O)[C@H](Cc2c[nH]c3ccccc23)NC(=O)[C@H](CC(=O)O)NC(=O)CN(C)C(=O)[C@H](CCC(=O)O)NC1=O [3BP-3325] (Ac-CE[Sar]DWLTWQC-NH2; linker 1-10 via mXylylene) | 100 to 794 nM
15 | CC(=O)N[C@H](C(=O)N[C@@H](Cc1ccc(O)cc1)C(=O)N[C@@H]1CSCc2cccc(c2)CSC[C@@H](C(N)=O)NC(=O)[C@H](CO)NC(=O)[C@H](Cc2c[nH]c3ccccc23)NC(=O)[C@H]([C@@H](C)O)NC(=O)[C@H](CC(C)C)NC(=O)[C@H](Cc2c[nH]c3ccccc23)NC(=O)CCNC1=O)C(C)C [3BP-3604] (Ac-VY[dC][βAla]WLTWSC-NH2; linker 3-10 via mXylylene) | 100 to 794 nM
